One assay concerns the target full length NS3/4a (Hepatitis C virus genotype 1b (isolate BK) (HCV), UniProt P26663). The assay can be described thus: NS3 Protease Assay (Example A), FRET-based. The assay is classed as biochemical. The note with it: for IC50: HCV NS3 protease assay, full length NS3/4a, read-out: Assay A IC50 (μM) average; for pIC50: read-out: IC50 against the protease activity of the full length NS3/4a. An outline of the steps: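 Initial rates were taken from fluorescence progress curves over 30 min at room temperature, and IC50 was fitted across replicates. In-house full-length NS3/4a cleaved a FRET peptide (5-FAMsp/QXL520) from the NS4A/B site. Medium: 50 mM Tris pH8, 20 mM DTT, 1% CHAPS, 10% glycerol, 5% DMSO.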

Assay [1] deals with HCV subgenomic replicon in Huh-7 cells. In words: Replicon Assay (Example B), luciferase readout EC50. The class given is cell-based. The note with it: luciferase readout, upper value of the cell pair, read-out: Assay B EC50. The protocol: The activities of compounds of the invention against HCV in a cellular environment were analysed using a replicon assay as described below.
Thus, Huh-7 cells persistently infected with an HCV-RNA construct (Bartenschlager, R. Hepatitis C replicons: potential role for drug development. Nature Rev. Drug Discov. 1, 911-916 (2002)) comprising: 5′ and 3′ non-translated regions (NTR); the non-structural genes NS3 to NS5b; as well as the G418 drug resistance gene, neomycin, (for selection of cells carrying HCV replicon RNA) fused to the firefly Luciferase reporter gene (pFKI3889Iuc-ubi-neo/NS3-3′/ET) were used to determine the cell based antiviral activity of compounds using luciferase activity as an indirect readout of HCV RNA load. In this assay […] huh-7 cells persistently infected with the HCV subgenomic replicon construct above were plated/well in a 96 well tissue culture plate. The cells were allowed to attach overnight in DMEM medium supplemented with 10% FBS 1% NEAA, and 250 μg/ml gentamicin. The following day the medium was replaced with 200 μl/well of fresh medium as described above lacking gentamicin. Semilog dilutions of compounds in medium were then added to triplicate wells (non-edge) of the cultured cells to give a 0.1% DMSO final concentration. Plates were then incubated at 37° C. in an atmosphere of 5% CO2 and air for 72 h. […] The plate was then read at 535 nm (excitation) and 590 nm (emission) on a SpectraMax Gemini reader (Molecular Devices) to determine the number of viable cells by measuring the conversion of rezasurin (Alamar blue) to resorufin in response to mitochondrial activity. In order to determine the antiviral effect of these compounds EC50 values were determined by measuring the luciferase activity of the cells. Alamar blue solution was removed from the wells and replaced with 100 μl/well of medium along with 100 μl/well of Bright-Glo reagent and incubated at room temperature for 5 minutes before transferring 100 μl/well to a white bottom 96 well plate to read in a luminometer as described in the Bright-Glo Luciferase Assay System protocol (promega).
(In antiviral work, replicon cells carry a viral genome segment that copies itself.)

The mark [2] stands for this setting: Hepatitis C virus, Huh-7, replicon assay.
Setting [3] is: stated as IC50 less than 30 μM or at least 40% inhibition at a concentration of 100 μM.

pEC50, pIC50: −log10 of the molar value. Where two headings read alike, the source gives them in different places.

Sequence of full length NS3/4a (P26663 1027-1657): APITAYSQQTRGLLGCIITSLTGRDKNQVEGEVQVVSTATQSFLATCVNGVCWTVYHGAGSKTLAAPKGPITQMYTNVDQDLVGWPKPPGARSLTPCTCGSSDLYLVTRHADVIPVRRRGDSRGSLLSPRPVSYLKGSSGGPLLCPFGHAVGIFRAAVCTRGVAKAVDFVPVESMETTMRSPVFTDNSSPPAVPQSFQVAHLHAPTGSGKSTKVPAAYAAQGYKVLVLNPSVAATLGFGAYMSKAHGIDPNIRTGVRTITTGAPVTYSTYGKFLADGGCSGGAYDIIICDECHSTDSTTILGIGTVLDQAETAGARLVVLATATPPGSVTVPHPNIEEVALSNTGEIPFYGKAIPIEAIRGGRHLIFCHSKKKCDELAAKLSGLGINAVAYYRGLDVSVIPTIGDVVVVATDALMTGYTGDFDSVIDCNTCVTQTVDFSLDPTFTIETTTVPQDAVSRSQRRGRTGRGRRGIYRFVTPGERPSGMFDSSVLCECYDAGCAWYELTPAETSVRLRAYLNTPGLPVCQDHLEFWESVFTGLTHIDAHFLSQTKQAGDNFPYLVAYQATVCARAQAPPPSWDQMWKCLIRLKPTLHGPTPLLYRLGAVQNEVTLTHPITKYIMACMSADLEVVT

As for `CCOC(=O)c1cnn(-c2ccc(C(=O)c3c(Cl)ccc([C@H](N)CC)c3F)cn2)c1` [Example 41, ethyl 1-[5-({3-[(1R)-1-aminopropyl]-6-chloro-2-fluorophenyl}carbonyl)pyridin-2-yl]-1H-pyrazole-4-carboxylate], at full length NS3/4a, the IC50 amounted to 1.6 µM and the pIC50 was 5.30 to 6.00. Further, the pEC50 in assay [1] (setting [2]) was 8.05.

At full length NS3/4a (@ 0.01 uM), `C[C@@H](CC(=O)NCCN)NCc1ccc(Cl)c(C(=O)c2ccccc2)c1F` [Example 282, (3S)—N-(2-aminoethyl)-3-{[(3-benzoyl-4-chloro-2-fluorophenyl)methyl]-amino}butanamide] displayed an inhibition at 0.01 µM of 65%. Besides, the pEC50 in assay [1] (setting [2]) was 5.49.

With `CCC(NC1CCCC1C(N)=O)c1ccc(Cl)c(C(=O)c2ccc(N)nc2)c1F` (racemic) [Example 161, 2-{[1-{3-[(6-aminopyridin-3-yl)carbonyl]-4-chloro-2-fluorophenyl}propyl]amino} cyclopentane-1-carboxamide], the pEC50 in assay [1] (replicon assay) is under 5.00.

On to `CC[C@@H](N)c1ccc(Cl)c(C(=O)c2ccc(N)c(Cl)c2)c1F` [Example 74, (4-Amino-3-chloro-phenyl)-[3-((R)-1-amino-propyl)-6-chloro-2-fluoro-phenyl]-methanone], for which, in assay [1] (setting [2]), the pEC50 is 7.49.

As to `CC[C@@H](N)c1ccc(Cl)c(C(=O)c2ccc(N)c(C#N)c2)c1F` [Example 72, 2-Amino-5-[3-((R)-1-amino-propyl)-6-chloro-2-fluoro-benzoyl]-benzonitrile], the pEC50 in assay [1] (setting [2]) is 7.49.

Turning to `CCC(NC1CCCC1C(N)=O)c1ccc(Cl)c(C(=O)c2ccc(N)nc2)c1F` (racemic) [Example 127, 2-{[1-{3-[(6-aminopyridin-3-yl)carbonyl]-4-chloro-2-fluorophenyl}propyl]amino} cyclopentane-1-carboxamide], the pEC50 in assay [1] (replicon assay) was under 5.00.

For `[2H]C([2H])([2H])C([2H])([2H])[C@@H](N[C@@H](C)CC(N)=O)c1ccc(Cl)c(C(=O)c2ccc(N)c(C)c2)c1F` [Example 268, (3S)-3-{[(1R)-1-{3-[(4-amino-3-methylphenyl)carbonyl]-4-chloro-2-fluorophenyl}(2,2,3,3,3-deutero)propyl]amino}-butanamide], on full length NS3/4a, the IC50 stood at 0.19 µM and the pIC50 is over 6.00. Also, the pEC50 in assay [1] (setting [2]) was 7.80.

Consider `CCC(NC1CCCC1C(N)=O)c1ccc(Cl)c(C(=O)c2ccc(N)nc2)c1F` (racemic) [Example 125, 2-{[1-{3-[(6-aminopyridin-3-yl)carbonyl]-4-chloro-2-fluorophenyl}propyl]amino} cyclopentane-1-carboxamide], for which the negative-log EC50 (pEC50) in assay [1] (replicon assay) is 7.10.

Turning to `CC[C@H](NCCCO)c1ccc(Cl)c(C(=O)c2ccccc2)c1F` [Example 182, 3-{[(1S)-1-(3-benzoyl-4-chloro-2-fluorophenyl)propyl]-amino}propan-1-ol], the IC50 on full length NS3/4a was 0.038 µM.

`CC[C@@H](N)c1ccc(Cl)c(C(=O)c2ccc(-n3cc(CO)cn3)nc2)c1F` [Example 46, {1-[5-({3-[(1R)-1-aminopropyl]-6-chloro-2-fluorophenyl}carbonyl)pyridin-2-yl]-1H-pyrazol-4-yl}methanol] came in with an inhibition at 10 µM on full length NS3/4a of 64%. Besides, at full length NS3/4a (setting [3]), the pIC50 is over 4.52.

As for `CC(C)C[C@@H](N[C@H](C)CC(N)=O)c1ccc(Cl)c(C(=O)c2ccc(N)nc2)c1F` [Example 272, (3R)-3-{[(1R)-1-{3-[(6-aminopyridin-3-yl)carbonyl]-4-chloro-2-fluorophenyl}-3-methylbutyl]amino} butanamide], testing at 3 µM against full length NS3/4a (@ 3 uM) gave an inhibition of 43%. Further, on full length NS3/4a (setting [3]), the pIC50 is over 4.52.

Regarding `CC[C@@H](N)c1ccc(OC)c(C(=O)c2cccc(F)c2)c1F` [Example 198, (1R)-1-{2-fluoro-3-[(3-fluorophenyl)carbonyl]-4-methoxyphenyl}propan-1-amine], on full length NS3/4a, the IC50 came out at 2.4 µM and the pIC50 was 5.30 to 6.00.

Turning to `N[C@@H](c1ccc(Cl)c(C(=O)c2ccc(F)cc2)c1F)C1CC1` [Example 27, (R)-{4-chloro-2-fluoro-3-[(4-fluorophenyl)carbonyl]phenyl}(cyclopropyl)methanamine], at full length NS3/4a, the IC50 was found to be 0.22 µM and the pIC50 is over 6.00.

On to `CC[C@@H](N[C@H](C)C(N)=O)c1ccc(Cl)c(C(=O)c2cccnc2)c1F` [Example 169, (2R)-2-{[(1R)-1-{4-chloro-2-fluoro-3-[(pyridin-3-yl)carbonyl]phenyI}-propyl]amino}propanamide], for which, on full length NS3/4a (@ 100 uM), the “Assay A % inhibition average” value is reported as 53% @ 100 uM. For the same compound, on full length NS3/4a (setting [3]), the pIC50 is over 4.52.

In the case of `CC[C@@H](N)c1ccc(Cl)c(C(=O)c2ccc(F)c(F)c2)c1F` [Example 13, (1R)-1-{4-chloro-3-[(3,4-difluorophenyl)carbonyl]-2-fluorophenyl}propan-1-amine], on full length NS3/4a, the IC50 came out at 0.83 µM and the pIC50 is over 6.00.

The compound `CC[C@@H](N)c1ccc(O)c(C(=O)c2ccccc2)c1F` [Example 44, 4-[(1R)-1-aminopropyl]-2-benzoyl-3-fluorophenol] showed an inhibition at 100 µM at full length NS3/4a (@ 100 uM) of 30%.

Consider `CC[C@@H](N[C@H](C)CC(N)=O)c1ccc(Cl)c(C(=O)c2cccc(C#N)c2)c1F` [Example 102, (3R)-3-{[(1R)-1-{4-chloro-3-[(3-cyanophenyl)carbonyl]-2-fluorophenyl}propyl]amino}-butanamide], for which, at full length NS3/4a, the half-maximal inhibitory concentration (IC50) was found to be 1.2 µM and the pIC50 was 5.30 to 6.00.

In turn, `C[C@@H](CC(N)=O)N[C@@H](c1ccc(Cl)c(C(=O)c2cnc(N)cn2)c1F)C1CC1` [Example 194, (3S)-3-{[(R)-{3-[(5-aminopyrazin-2-yl)carbonyl]-4-chloro-2-fluorophenyl}(cyclo-propyl)methyl]amino}-butanamide] came in with an inhibition at 0.3 µM at full length NS3/4a (@ 0.3 uM) of 28%.

Take `CC[C@@H](N[C@H](C)CC(N)=O)c1ccc(OC)c(C(=O)c2cccc(F)c2)c1F` [Example 211, (3R)-3-{[(1R)-1-{2-fluoro-3-[(3-fluorophenyl)carbonyl]-4-methoxyphenyl}propyl]amino}butanamide]: at full length NS3/4a, at 1 µM the inhibition was 47% and the pIC50 was 5.30 to 6.00.

Take `CC[C@@H](N)c1ccc(Cl)c(C(=O)c2ccnc(N)c2)c1F` [Example 52, 4-({3-[(1R)-1-aminopropyl]-6-chloro-2-fluorophenyl}carbonyl)pyridin-2-amine]: on full length NS3/4a, the IC50 was 0.77 µM and the pIC50 was over 6.00.

For the compound `CC[C@@H](N[C@@H](CC(N)=O)C(C)C)c1ccc(Cl)c(C(=O)c2ccc(N)nc2)c1F` [Example 218, (3S)-3-{[(1R)-1-{3-[(6-aminopyridin-3-yl)carbonyl]-4-chloro-2-fluorophenyl}propyl]amino}-4-methylpentanamide], on full length NS3/4a, the inhibition at 1 µM stood at 42% and the pIC50 was 5.30 to 6.00.

As for `CC[C@@H](N[C@H](C)CC(N)=O)c1ccc(Cl)c(C(=O)c2ccc(O)cc2)c1F` [Example 231, (3R)-3-{[(1R)-1-{4-chloro-2-fluoro-3-[(4-hydroxyphenyl)carbonyl]phenyl}propyl]amino}butanamide], at full length NS3/4a, the IC50 worked out at 2.1 µM and the pIC50 is 5.30 to 6.00.

Consider `CC[C@@H](N)c1ccc(Cl)c(C(=O)c2ccc3c(n2)NC(=O)CO3)c1F` [Example 58, 6-({3-[(1R)-1-aminopropyl]-6-chloro-2-fluorophenyl}carbonyl)-2H,3H,4H-pyrido[3,2-b][1,4]oxazin-3-one], for which 10 µM produced 31% inhibition at full length NS3/4a.

As for `C[C@@H](CC(N)=O)NCc1ccc(Cl)c(C(=O)c2ccccc2)c1F` [Example 281, (3S)-3-{[(3-benzoyl-4-chloro-2-fluorophenyl)methyl]amino}butanamide], the IC50 on full length NS3/4a is 0.45 µM.

As to `CC[C@@H](N[C@H](C)CC(N)=O)c1ccc(Cl)c(C(=O)c2cc[n+]([O-])cc2)c1F` [Example 143, (R)-3-{(R)-1-[4-Chloro-2-fluoro-3-(1-oxy-pyridine-4-carbonyl)-phenyl]propylamino}-butyramide], at full length NS3/4a, the “Assay A % inhibition average” value was 59% @ 30 uM. For the same compound, the pIC50 on full length NS3/4a (setting [3]) was over 4.52.

Turning to `C[C@@H](CC(N)=O)N[C@@H](c1ccc(Cl)c(C(=O)c2ccc(C#N)cc2)c1F)C1CC1` [Example 129, (3S)-3-{[(R)-{4-chloro-3-[(4-cyanophenyl)-carbonyl]-2-fluorophenyl}(cyclo-propyl)methyl]amino}-butanamide], at 0.03 µM the inhibition against full length NS3/4a (@ 0.03 uM) was 36%.

As usually defined, the IC50 is the concentration at which inhibition is half-maximal. The pEC50 is the EC50 on a negative log10 scale, so that one unit is a factor of ten. As a reminder, the inhibition is the change of the read-out against control, counted positive when it falls.

Values taken from patent publication US9145354B2, “Pharmaceutical compounds” (priority 2011, dated 2015).
